Test results: publication PMC12177912, “A Geranylated Natural Product Simamycin Disrupts the Allosteric Catalysis of tRNA-2-selenouridine Synthase SelU” (Biochemistry, 2025)

Biological target: T1, tRNA-2-selenouridine synthase (SelU, MnmH) (Escherichia coli, UniProt Q0TKD8)
T1 construct: M1-A172 (N-terminal rhodanese domain; tags removed with TEV)
Experiment: intrinsic tryptophan fluorescence quenching titration (Kd at […] °C; […] at […] °C, […] at […] °C, […] at […] °C); STD NMR
Format: binding

T1 sequence (Q0TKD8 1-172): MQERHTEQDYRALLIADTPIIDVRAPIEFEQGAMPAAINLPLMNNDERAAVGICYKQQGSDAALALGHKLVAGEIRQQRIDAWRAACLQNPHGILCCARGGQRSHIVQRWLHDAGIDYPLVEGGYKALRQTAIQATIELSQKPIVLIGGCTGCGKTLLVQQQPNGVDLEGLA

CC(C)=CCC/C(C)=C/COC[C@H]1O[C@@H](n2ccc(=O)[nH]c2=O)[C@H](O)[C@@H]1O [simamycin]
Kd: 29.9 µM
